Source: article PMC6270821, “ROS-Mediated Cytotoxic Effect of Copper(II) Hydrazone Complexes against Human Glioma Cells” (Molecules, 2014)

Tested on: MRC5 (Human Fetal Lung Fibroblast) cells
Experiment: MTT cytotoxicity assay, MRC5 fibroblasts
Type: cell-based
Conditions: 48 h treatment
Method: The in vitro cytotoxic effects of H2AcMe, H2BzMe and complexes 1 and 2 against wild type p53 U87 and mutant p53 T98 glioblastoma cells and against MRC-5 fibroblasts cells were tested using cisplatin as a positive control. To determine the IC50 (concentration that inhibits 50% of cell survival) values the cytotoxic effects were quantified using the 3-(4,5-dimethyl-2-thioazolyl)-2,5-diphenyl tetrazolium bromide (MTT) colorimetric assay. All tested compounds were cytotoxic against both glioma cell lines in a dose-dependent way. The IC50 values (see Table 1) were found in the micromolar range. Despite their cytotoxic activity, all compounds were less toxic to fibroblasts cells than cisplatin. CuCl2 evoked only mild cytotoxicity in all cell lineages with IC50 higher than 100 µM.
U87 (p53 wild-type glioblastoma multiforme) and T98 (p53 mutant glioblastoma multiforme) malignant human tumor cells and MRC5 (Human Fetal Lung Fibroblast) cells were obtained from the American Type Culture Collection (ATCC, Manassas, VA, USA). Cell lines were grown as monolayer in Dulbecco’s Modified Eagle’s Medium (DMEM, Gibco, Rockville, MD, USA), supplemented with 10% fetal bovine serum (Cultilab, Campinas, São Paulo, Brazil) and antibiotics (50 U/mL penicillin/50 […] streptomycin), in a humidified atmosphere air/CO2 (95%/5%) at 37 °C. Cells 80% confluents were used in all experiments. For all experiments, cells were seeded in 96-well plates, at a density of 1000 cells/well. After 24 h incubation cells were treated.
To determine the IC50 values the cytotoxic effects were quantified using the 3-(4,5-dimethyl-2-thioazolyl)-2,5-diphenyltetrazolium bromide (MTT) colorimetric assay. Briefly, cells were treated with increasing concentrations (10^−12, 10^−11, 10^−10, 10^−9, 10^−8, 10^−7, 10^−6, 10^−5, 10^−4 mol·L^−1) of either cisplatin (positive control) or test compounds (H2AcMe, H2BzMe, 1 and 2). The compounds were previously dissolved in dimethyl sulfoxide (DMSO) and the final concentrations were adjusted in DMEM in such manner that the final DMSO concentration was lower than 0.5%. Following 48 h treatment, MTT reagent was added to each well. Following another 4 h of incubation at 37 °C, DMSO was added to each well to dissolve formazan precipitate and absorbance was measured at 570 nm. Tests using DMSO (0.5% in DMEM) as negative control were carried out in parallel. All tests were performed in quadruplicates with full agreement between the results. Statistical analysis was carried out by the unpaired, one-tailed Student’s t testing using a p value of 0.05. A value of p < 0.05 was considered significant.

Row | Structure (SMILES) | IC50 [µM]
1 | CC(=O)NN=C(c1ccccc1)c1ccccn1.[Cl][Cu][Cl] [compound 2, [dichloro(2-benzoylpyridineacetylhydrazone)copper(II)]] | 49.4 ± 8.83
2 | CC(=O)NN=C(C)c1ccccn1.[Cl][Cu][Cl] [compound 1, [dichloro(2-acetylpyridineacetyl-hydrazone)copper(II)]] | 22.5 ± 3.13
